In article PMC3375010, “The TRPV5/6 calcium channels contain multiple calmodulin binding sites with differential binding properties” (Journal of Structural and Functional Genomics, 2012):

Key:
CaM (calmodulin) [1] = molecular target: T1, CaM (calmodulin) (Xenopus laevis, UniProt P0DP33); test: Isothermal titration calorimetry of CaM with peptide; format: binding, Xenopus laevis (identical to mammalian); conditions: sequential binding sites model, N fixed to 2, 298 K
T1 construct: made in house; host or cells: E. coli AR58 (pTNcoI2 plasmid)
From the text: Peptides corresponding to the amino acid residues 133–154, 310–330, 401–428, 591–612, 696–712 and 696–729 of human TRPV5 and 401–428 and 690–716 of human TRPV6 (cf. Table 1) were purchased from Peptides & elephants GmbH (Potsdam, Germany) and GenicBio Limited (Shanghai, China). All peptides were purified by HPLC (>95% purity) and analyzed by mass-spectrometry. Prior to all experiments, to remove residual TFA, the peptides were dialyzed against an appropriate buffer (dialysis tubing Spectra/Por® 7 with 1 K MWCO; Spectrum Labs, USA).
Expression was induced by a temperature shift from 30 to 42°C and 3–4 h after induction cells were harvested and lysed. Calmodulin was purified by weak anion exchange (DEAE, GE Lifesciences) and affinity chromatography (Phenylsepharose, GE Lifesciences). Purified protein was dialyzed against 1/100 of KCl 50 mM, CaCl2 10 mM, Tris 20 mM pH 7.0, freeze-dried and stored at −20°C. Unless specified differently, all chemicals were obtained from Sigma-Aldrich, USA). Uniformly ^13C and/or ^15N-labelled samples were produced by growing the cells in M9 minimal medium containing 4 g/L ^13C6-glucose and/or 1 g/L ^15N-ammonium chloride (Buchem BV, Apeldoorn, The Netherlands) as the sole source of carbon and/or nitrogen, respectively.
ITC samples were prepared by dissolving CaM and peptides in 50 mM KCl, 10 mM CaCl2, 20 mM Tris pH 7.0 buffer. The concentration of CaM in the cell was 15–20 μM, the concentration of peptides in the syringe exceeded the CaM concentration by 15–20 times. Protein concentrations were determined using a Nanodrop spectrophotometer ND-1000 (Isogen Life Science). ITC experiments were carried out using an ITC200 device (MicroCal Inc., Northampton, MA, USA). After thermal equilibration at 298 K, thirty-nine 1 μl serial injections were performed at 500 rpm stirring speed with an injection spacing of 4 min. To correct the experimental binding isotherm for background heat effects, we also titrated peptide into buffer. All measurements were performed at least three times to determine the optimal experimental conditions with respect to signal-to-noise ratio. In all cases, experiments were consistent and reproducible. ITC data analysis was performed using the Origin 7.0 software supplied by the manufacturer of the ITC. All data were analyzed with “one binding site model” and the “sequential binding site model” implemented in this software package.

CaM (calmodulin) [2] = molecular target: T1, CaM (calmodulin); test: 15N-1H-HSQC NMR titration of 15N-labelled CaM with peptide (with 1D 15N-filtered NMR); format: binding, Xenopus laevis (identical to mammalian); conditions: CaM buffer pH 7.0, 35°C
Description: For the titration by synthetic peptides, ^15N-labeled CaM samples with concentration 0.3–0.7 mM were used. CaM and peptides were dissolved in either KCl 50 mM, CaCl2 10 mM, Tris 20 mM pH 7.0 (V5p1s, V6p1, V5p4, V5p5), or 10 mM CaCl2, 10 mM ammonium acetate buffer pH 5.0 (V5p3 and V6p3), or MilliQ water with 10 mM 2-mercaptoethanol (V5p2 and V5p2n).
The binding of target peptides to CaM was monitored by 2D ^15N-^1H-HSQC spectra. The combination of 1D ^15N-filtered and 1D ^15N-^1H-HSQC experiments was used to assess the ratio of bound and non-bound peptides. ^15N-T1rho experiments were used to estimate the transverse relaxation rates of the CaM resonances during the titration. For sequential assignment of CaM 3D HNCACB and CBCA(CO)NH experiments were performed.
All spectra were recorded at 308 K on Varian Inova 800 MHz or Bruker Avance III 600 MHz spectrometers, each equipped with a cryogenic probe.
All NMR spectra were processed using the NMRpipe suite and analyzed by the program CcpNmr Analysis.

CaM (calmodulin) [3] = molecular target: T1, CaM (calmodulin); test: Tryptophan fluorescence of the peptide upon titration by CaM; format: binding, Xenopus laevis (identical to mammalian); conditions: room temperature, excitation 282 nm
Description: Fluorescence measurements were performed using a Varian Cary Eclipse fluorescence spectrophotometer (Agilent Technologies, USA), with emission and excitation slit width set to 5 nm. Tryptophan excitation wavelength was set to 282 nm and emission spectra were recorded in the range 295–405 nm. Each spectrum was recorded three times and averaged. Fluorescence intensity contribution from CaM and background intensity from buffer and cuvettes were subtracted for each spectrum. The recorded emission intensities were corrected for dilution effects. All measurements were carried out at room temperature. CaM and peptides stocks were prepared in 50 mM KCl, 10 mM CaCl2 20 mM Tris pH 7.0 buffer. […] For each titration point, the samples were kept at room temperature for 30 min prior to measurements to ensure that the equilibrium was reached.

CaM-Sepharose = conditions: ref S. Verkaart, private communication; cited from earlier work
From the text: In our previous work we studied a long version of the C-terminal TRPV5 peptide 1 (V5p1, residues 696–729 in human TRPV5).

Which “K2 (macroscopic binding constant, second event)” value (CaM (calmodulin) [1]; association constant, 50 mM KCl, 10 mM CaCl2, 20 mM Tris pH 7.0, CaM 15–20 μM in cell) does the source give for “GSHRGWEILRQNTLGHL [V5p1s, short TRPV5 C-terminal peptide 1, residues 696–712 of human TRPV5, S696G]” here?
The value was 2.9 (±1.9) × 10^4 M^−1.

What about the “K1 (macroscopic binding constant, first event)” value (CaM (calmodulin) [1]; association constant, 50 mM KCl, 10 mM CaCl2, 20 mM Tris pH 7.0, CaM 15–20 μM in cell, measured at least three times) of the same sequence?
The value was 9.2 (±4.1) × 10^6 M^−1.

And the ΔS1 (CaM (calmodulin) [1]; pH 7.0)?
Its ΔS1 is −95.3 cal mol^−1 deg^−1.

What about the ΔS2 (CaM (calmodulin) [1]; pH 7.0) of the same sequence?
The ΔS2 was −64.1 cal mol^−1 deg^−1.

What about the “CaM residues/domain involved in first binding event” value (CaM (calmodulin) [2]; 1:1 CaM:peptide) of the same sequence?
The value was “C-domain of CaM”.

And the “CaM residues/domain involved in second binding event” value (CaM (calmodulin) [2]; 1:2 CaM:peptide)?
Its value is “N-domain of CaM”.

And the “number of distinct binding events” value (CaM (calmodulin) [2]; 15N-1H-HSQC at CaM:peptide 1:0, 1:1, 1:2)?
The value was “two binding events”.

What about the “emission maximum λmax” value (CaM (calmodulin) [3]; W701, peptide:CaM ratio 1:2, 50 mM KCl, 10 mM CaCl2, 20 mM Tris pH 7.0) of the same sequence?
The value was ~ 324 nm.

And the “shift of emission maximum upon CaM addition” value (CaM (calmodulin) [3]; emission 295–405 nm, peptide:CaM 1:0–1:2)?
Its value is “clear blue-shift of the emission maximum”.

And the “effect of C-terminal deletion of 17 amino acids on TRPV5 binding to CaM-Sepharose” value (CaM-Sepharose)?
Its value is “did not affect TRPV5 binding to CaM-Sepharose”.
